The record followed here is patent US20090118263A1, “Novel Adenine Compound” (priority 2005, published 2009).

Structures are written as SMILES.

The target of this experiment is T1, human TLR7 (Homo sapiens, UniProt Q9NYK1).
T1 construct: expressed in transfected cells; host or cells: HEK293 (hTLR7/seap-293), stably transfected with the TLR7 plasmid and the NF-kB-SEAP reporter plasmid
T1 sequence (Q9NYK1 27-1049): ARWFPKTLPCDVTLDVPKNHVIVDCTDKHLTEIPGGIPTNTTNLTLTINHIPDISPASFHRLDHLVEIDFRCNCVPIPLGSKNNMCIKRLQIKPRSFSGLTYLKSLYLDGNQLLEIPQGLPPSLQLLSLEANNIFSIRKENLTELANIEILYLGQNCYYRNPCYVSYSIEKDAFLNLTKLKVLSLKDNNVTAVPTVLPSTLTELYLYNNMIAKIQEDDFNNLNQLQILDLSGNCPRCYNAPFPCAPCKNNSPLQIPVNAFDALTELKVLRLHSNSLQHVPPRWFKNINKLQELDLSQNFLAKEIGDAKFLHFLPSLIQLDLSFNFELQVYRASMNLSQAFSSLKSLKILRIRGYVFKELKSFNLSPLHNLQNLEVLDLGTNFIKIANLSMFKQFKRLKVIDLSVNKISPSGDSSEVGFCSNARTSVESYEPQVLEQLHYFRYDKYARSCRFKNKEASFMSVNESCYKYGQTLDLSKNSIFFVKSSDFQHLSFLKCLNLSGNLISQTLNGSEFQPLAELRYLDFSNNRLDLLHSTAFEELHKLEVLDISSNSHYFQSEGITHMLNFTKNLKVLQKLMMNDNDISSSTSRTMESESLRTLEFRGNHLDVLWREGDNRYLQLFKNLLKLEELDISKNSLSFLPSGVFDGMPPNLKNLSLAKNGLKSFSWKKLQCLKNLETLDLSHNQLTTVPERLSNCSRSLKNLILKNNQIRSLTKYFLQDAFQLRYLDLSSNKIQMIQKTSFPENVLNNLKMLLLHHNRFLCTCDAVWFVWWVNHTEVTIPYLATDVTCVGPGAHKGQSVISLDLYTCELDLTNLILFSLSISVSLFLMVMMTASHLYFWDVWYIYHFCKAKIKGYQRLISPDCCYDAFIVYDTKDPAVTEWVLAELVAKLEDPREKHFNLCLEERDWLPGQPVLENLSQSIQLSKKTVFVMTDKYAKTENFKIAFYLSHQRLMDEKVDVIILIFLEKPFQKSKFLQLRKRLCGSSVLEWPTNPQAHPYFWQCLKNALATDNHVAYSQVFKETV
The experiment can be described thus: Human TLR7 reporter assay (NF-kB-SEAP in HEK293 cells). Particulars: HEK293 cells stably carrying human TLR7 plasmid and NF-kB-SEAP reporter plasmid; 20 hours culture; 1 nM-10 μM; absorbance 405 nm; read-out: Human TLR7 binding activity (EC50). Format: cell-based. The method, then: Human TLR7 Reporter Assay
HEK293 cells in which human TLR7 or rat TLR7 plasmid and reporter plasmid (NF-kB-SEAP) are stably introduced are dispersed in DMEM broth (10% FBS, 1% NEAA, 10 ug/mL blastocidin S HCl, 100 ug/mL Zeocin), and were seeded to 96 well plate per 90 μl/well (hTLR7/seap-293:20000 cells/well, rTLR7/seap-293:25000 cells/well).
Test compound (DMSO stock solution (2 μl) was diluted with the broth (200 μl) by 100 times) was added to the seeded cells to a 96 well plate (10 μl/well) (final concentration; 1 nM-10 μM, common ratio). After stirring by tapping side of the plate, the cells were cultured in a CO2 incubator for 20 hours. A substrate (50 μl/well) for reporter assay (substrate for SEAP, pNPP) was added to cells stimulated by test sample. Ten minutes after adding the substrate, the reaction quenching solution (4N NaOH) was added by 50 μl/well to cease enzymatic reaction. Sealing a top seal A on the plate, the absorbance was measured by a micro plate reader (405 nm).

Turning to `CCCCOc1nc(N)c2[nH]c(=O)n(Cc3ccc(OCCCN(C)Cc4cccc(CC(=O)OC)c4)cc3)c2n1` [Example 1, 2-Butoxy-7,8-dihydro-9-[(3-[{N-methyl-N-[3-(methoxycarbonylmethyl)benzyl]}amino]propoxy)benzyl]-8-oxoadenine], the EC50 was 26 nM.
Then `CCCCOc1nc(N)c2[nH]c(=O)n(Cc3ccc(OCCCNCc4cccc(CC(=O)OC)c4)cc3)c2n1` [Example 3, 2-Butoxy-7,8-dihydro-9-([3-{N-[3-(methoxycarbonylmethyl)benzyl]amino}propoxy]benzyl)-8-oxoadenine], with 20.4 nM; and `CCCCOc1nc(N)c2[nH]c(=O)n(Cc3ccc(CN(CCCO)Cc4cccc(CC(=O)OC)c4)cc3)c2n1` [Example 5, 2-Butoxy-7,8-dihydro-9-(4-{N-(3-hydroxypropyl)-N-[3-(methoxycarbonylmethyl)benzyl]aminomethyl}benzyl)-8-oxoadenine], with 40.8 nM.
On to `CCCCOc1nc(N)c2[nH]c(=O)n(Cc3ccc(CN(CCCN4CCOCC4)Cc4cccc(CC(=O)OC)c4)cc3)c2n1` [Example 7, 2-Butoxy-7,8-dihydro-9-(4-{N-[3-(methoxycarbonylmethyl)benzyl]-N-(3-morpholin-4-ylpropyl)aminomethyl}benzyl)-8-oxoadenine], for which the EC50 was 24.1 nM.
As to `CCCCOc1nc(N)c2[nH]c(=O)n(Cc3ccc(CN(CCCN4CCOCC4)Cc4cccc(CC(=O)O)c4)cc3)c2n1` [Example 8, 2-Butoxy-7,8-dihydro-9-(4-{N-[3-(hydroxycarbonylmethyl)benzyl]-N-(3-morpholin-4-ylpropyl)aminomethyl}benzyl)-8-oxoadenine], the EC50 stood at 253 nM.
As to `CCCCOc1nc(N)c2[nH]c(=O)n(Cc3ccc(CN(C)CCOc4cccc(CC(=O)OC)c4)cc3)c2n1` [Example 9, 2-Butoxy-7,8-dihydro-9-[4-(N-{2-[3-(methoxycarbonylmethyl)phenoxy]ethyl}-N-methylaminomethyl)benzyl]-8-oxoadenine], the 50% effective concentration (EC50) was found to be 28.3 nM.
In the case of `CCCCOc1nc(N)c2[nH]c(=O)n(Cc3ccc(CN(C)CCOc4cc(CC(=O)OC)ccc4OC)cc3)c2n1` [Example 11, 2-Butoxy-7,8-dihydro-9-[4-(N-{2-[2-methoxy-5-(methoxycarbonylmethyl)phenoxy]ethyl}-N-methylaminomethyl)benzyl]-8-oxoadenine], the EC50 was 21 nM.
Then `CCCCOc1nc(N)c2[nH]c(=O)n(Cc3ccc(OCCCCNCc4cccc(CC(=O)OC)c4)nc3)c2n1` [Example 12, 2-Butoxy-7,8-dihydro-9-{6-[4-(3-methoxycarbonylmethylbenzyl)aminobutoxy]pyridin-3-ylmethyl}-8-oxoadenine], with 9.1 nM; and `CCCCOc1nc(N)c2[nH]c(=O)n(Cc3ccc(OCCCCN(C)Cc4cccc(CC(=O)OC)c4)nc3)c2n1` [Example 15, 2-Butoxy-7,8-dihydro-9-[6-(4-[{N-methyl-N-[3-(methoxycarbonylmethyl)benzyl]}amino]butoxy)pyridin-3-ylmethyl]-8-oxoadenine], with 9.4 nM.
Then `CCCCOc1nc(N)c2[nH]c(=O)n(Cc3ccc(OCCCCN(C)Cc4cccc(CC(=O)O)c4)nc3)c2n1` [Example 16, 2-Butoxy-7,8-dihydro-9-[6-(4-[{N-[3-(carboxymethyl)benzyl]-N-methyl}amino]butoxy)pyridin-3-ylmethyl]-8-oxoadenine], with 29.6 nM.
Then `CCCCOc1nc(N)c2[nH]c(=O)n(Cc3ccc(OCCCCN(CCCN4CCOCC4)Cc4cccc(CC(=O)OC)c4)nc3)c2n1` [Example 17, 2-Butoxy-7,8-dihydro-9-(6-[4-{[N-(3-methoxycarbonylmethylbenzyl)-N-(3-morpholinopropyl)]amino}butoxy]pyridin-3-ylmethyl)-8-oxoadenine], with 20.7 nM.
For the compound `COCCOc1nc(N)c2[nH]c(=O)n(Cc3ccc(CN(C)CCOc4cccc(CC(=O)OC)c4)cc3)c2n1` [Example 19, 7,8-Dihydro-9-[4-{N-[2-(3-methoxycarbonylmethylphenyl-1-yl)oxyethyl]-N-methylamino}methylbenzyl]-2-(2-methoxyethoxy)-8-oxoadenine], the EC50 was 51.5 nM.
